According to patent publication EP4759817A1, “HETEROARYL COMPOUND, PREPARATION METHOD THEREFOR, AND USE THEREOF IN MEDICINE” (Jiangsu Hengrui Pharmaceuticals Co., Ltd., priority 2023, dated 2025):

How the values were obtained:
HCT116 MTAP-/- cells = assay: HCT116 MTAP-/- cell proliferation assay (CellTiter-Glo, 10 days); type: cell-based; settings: Homo sapiens, HCT-116, 240 h, growth inhibition, CTG assay Day 10
Excerpt: (§1) • I. Experimental materials and instruments • 1. HCT116 cell line (Nanjing Kebai Biotechnology Co., Ltd., CBP60028) • 2. HCT116 MTAP-/- cell line (Nanjing Kebai Biotechnology Co., Ltd., CBP75002) • 3. DMSO (Sigma, D2650) • 4. McCoy's 5A medium (Gibco, 16600-082) • 5. Foetal bovine serum (FBS) (Gibco, 10091148) • 6. Phosphate buffered saline (DPBS) pH 7.4 (Gibco, 14190-144) • 7. Pen strep (PS) (Gibco, 15140-122) • 8. 0.25% Typsin-EDTA (1×) (Gibco, 25200-072) • 9. CellTiter-Glo® Luminescent Cell Viability Assay (Promega, G7572) • 10. 96-well round-bottom plate (JET, TCP002096) • 11. 96-well black clear bottom plate (Hangzhou Xinyou Biotechnology Co., Ltd., 060096) • 12. 1.2 mL 96-well deep well plate, clear, sterile, square-well, V-bottom (Titan, 02089063) • 13. 15-mL centrifuge tube (Titan) • 14. Biosafety cabinet (Thermo, 1300AII) • 15. Cell counter (Countstar, IC1000) • 16. Incubator (Thermo, I160) • 17. Centrifuge (Beckman coulter, Allegra X-12 centrifuge) • 18. PHERAstar FS microplate reader (BMG Labtech) • II. Experimental procedure • 1. Cell plating (Day 0) • a) The cell morphology was observed under a microscope to ensure confluence reached approximately 90%. • b) The cell supernatant was aspirated, the cells were washed once with PBS, and then the PBS was removed; and the cells were digested by adding an appropriate amount of trypsin, and left to stand at 37°C for 3 minutes. • c) The digestion was terminated by adding an equal volume of McCoy's 5A medium containing 10% FBS, and the cell suspension was collected and centrifuged at 300 g for 3 minutes; and the cells were resuspended in an appropriate amount of fresh medium. • d) The resuspended cell suspension was taken for counting. • e) The cell suspension was diluted to 1e4/mL using McCoy's 5A medium containing 10% FBS, and seeded at 50 µL per well, corresponding to 500 cells/well for HCT116 and 500 cells/well for HCT116 MTAP-/-. • f) The cell plate was placed in a 37°C, 5% carbon dioxide incubator and incubated overnight. • 2. Compound treatment (Day 1) • a) Each compound was serially diluted in DMSO to generate a 9-point concentration gradient (starting concentration: 10000 µM, 3-fold dilution; the highest concentration may be adjusted individually based on IC50 of different compounds); for example, in a 96-well round-bottom compound-dilution plate, 5 µL of the compound was sequentially diluted into 10 µL of DMSO. • b) Each concentration point of every compound was then diluted 250-fold into the corresponding volume of McCoy's 5A medium. • c) To each cell plate, 50 µL of the diluted compound solution as described above was added sequentially to the cell supernatant (50 µL/well). • d) The compound-treated cell plate was placed in a 37°C, 5% carbon dioxide incubator and incubated. • 3. Re-digestion, re-plating and compound treatment (Day 5) • a) After 5 days of compound treatment, the compound-containing medium was aspirated, and the cells were rinsed once with PBS (100 µL/well); and the PBS was removed immediately. • b) The cells were digested by adding 25 µL of trypsin and incubated at 37°C for 3 minutes, and then the digestion was terminated by adding 175 µL/well of McCoy's 5A medium containing 10% FBS. • c) The cells were mixed thoroughly using a pipette, and re-plated at 1 : 20; and specifically, 10 µL of the cell suspension was aspirated to a new 96-well plate (pre-filled with 40 µL of McCoy's 5A medium containing 10% FBS. • d) Compounds were prepared and added according to steps a) to c) in Section 2, with 50 µL added per well. • e) The compound-treated cell plate was placed in a 37°C, 5% carbon dioxide incubator and incubated. • 4. […]

[1] = Pharmacokinetic evaluation in Nu/Nu mice (plasma, LC-MS/MS); type: in vivo; settings: mouse, plasma, po, i.g., 100 mg/kg; for Vd/F: read-out: Apparent volume of distribution V/F; for AUC(0-t): read-out: Area under the curve AUC0-t; for CL/F: read-out: Clearance CL/F; for half-life: read-out: Half life T1/2 (converted); for Cmax: read-out: Plasma concentration Cmax
Protocol: Using Nu/Nu mice as the test animals, the plasma concentrations of the example compounds at different time points were determined by LC-MS/MS following oral gavage (i.g.) administration. The pharmacokinetic behaviours of the compounds of the present disclosure in Nu/Nu mice were investigated, and their pharmacokinetic profiles were evaluated.
Compound 1-p1, compound 2-p1, compound 8-p1 and comparative example 1.
A total of 36 female Nu/Nu mice (supplied by Vital River Laboratory Animal Technology Co., Ltd.) were randomly divided into 4 groups.
An appropriate amount of each test compound was weighed and dissolved in 5% DMSO+20% PEG400+70% (10% TPGS)+5% (1% HMPC K100LV) to prepare a 10 mg/mL colourless clear solution.
The administration dosage was 100 mg/kg, and the administration volume was 10 mL/kg.
Mice were not fasted. After oral gavage administration, blood (0.1 mL) was collected from the orbital cavity before administration, and at 0.25 h, 0.5 h, 1.0 h, 2.0 h, 4.0 h, 6.0 h, 8.0 h, 11.0 h and 24.0 h after administration. The blood was placed into EDTA-K2 anticoagulant tubes and centrifuged at 10000 rpm for 1 minute (4°C) to separate plasma. The plasma was separated within 1 h and stored at -20°C until analysis. The entire process from blood collection to centrifugation was performed in ice bath conditions.
Determination of test compound contents in plasma of Nu/Nu mice after administration of different compounds: To 20 µL of plasma samples from each time point in Nu/Nu mice, 200 µL of acetonitrile and 25 µL of verapamil (100 ng/mL) were added. The mixture was vortex-mixed for 5 minutes and centrifuged at 4000 rpm for 15 minutes. 90 µL of water and 90 µL of the supernatant were vortex-mixed for 5 minutes. 2 µL (for compound 1-p1), 2 µL (for compound 2-p1), 1 µL (for compound 8-p1), or 0.5 µL (for comparative example 1) of the supernatant was taken for LC-MS/MS analysis receptively.

HCT116 cells = assay: HCT116 cell proliferation assay (CellTiter-Glo, 10 days); type: cell-based; settings: Homo sapiens, HCT-116, 240 h, growth inhibition, CTG assay Day 10
Excerpt: as §1, with “3.” for “3. Re-digestion, re-plating and compound treatment (Day 5) • a) After 5 days of compound treatment, the compound-containing medium was aspirated, and the cells were rinsed once with PBS (100 µL/well); and the PBS was removed immediately. • b) The cells were digested by adding 25 µL of trypsin and incubated at 37°C for 3 minutes, and then the digestion was terminated by adding 175 µL/well of McCoy's 5A medium containing 10% FBS. • c) The cells were mixed thoroughly using a pipette, and re-plated at 1 : 20; and specifically, 10 µL of the cell suspension was aspirated to a new 96-well plate (pre-filled with 40 µL of McCoy's 5A medium containing 10% FBS. • d) Compounds were prepared and added according to steps a) to c) in Section 2, with 50 µL added per well. • e) The compound-treated cell plate was placed in a 37°C, 5% carbon dioxide incubator and incubated. • 4.”

Row | Compound | IC50 (HCT116 MTAP-/- cells) [nM] | Vd/F [1] [L/kg] | AUC(0-t) [1] [ng·h/mL] | CL/F [1] [mL/min/kg] | half-life [1] [h] | Cmax [1] [ng/mL] | IC50 (HCT116 cells) [nM]
1 | Cn1ncc(-c2ccc3c(=O)[nH]nc(CN)c3c2)c1-c1c(F)cc2c(c1C#N)O[C@H]1CC[C@H]1O2 (atropisomer, axis not shown; (M)) [Compound 1-p1, (M)-(2aS,8aR)-5-(4-(4-(aminomethyl)-1-oxo-1,2-dihydrophthalazin-6-yl)-1-methyl-1H-pyrazol-5-yl)-6-fluoro-1,2,2a,8a-tetrahydrobenzo[b]cyclobuta[e][1,4]dioxine-4-carbonitrile] | 11.9 | 35.4 | 8650 | 189 | 2.2 | 3250 | 1450
2 | [2H]C([2H])([2H])n1ncc(-c2ccc3c(=O)[nH]nc(CN)c3c2)c1-c1c(F)cc2c(c1C#N)O[C@H]1CC[C@H]1O2 (single isomer, unassigned) [Compound 2-p1] | 10.2 | 23.3 | 7140 | 233 | 1.2 | 2940 | 1300
3 | [2H]C([2H])([2H])n1ncc(-c2ccc3c(=O)[nH]nc(CN)c3c2)c1-c1c(F)cc2c(c1C#N)N1CCC[C@H]1CO2 (single isomer, unassigned) [Compound 8-p1] | 16.1 | 23.9 | 7640 | 218 | 1.3 | 2530 | 1450
